Reference: patent US6958318B2, “Recombinant bacterial cells for delivery of PNP to tumor cells” (The UAB Research Foundation, priority 1993, dated 2005)
Where “and” joins values, the source holds several entries; their conditions need not be identical. Equal values may be shown once.

Experiments:
[1] = tested on: T-84 colon carcinoma cells transfected with E. coli PNP; test: Toxicity of MeP-dR in T-84 cells transfected with E. coli PNP; type: cell-based, human
Description: Cationic liposome mediated gene transfer was used to transfect T-84 colon carcinoma cells. Briefly, 6 μg of plasmid containing PNP or LacZ was added to 10 μg of a 1:1 molar mixture of DOTMA/DOPE (LipofectinJ (GIBCO/BRL, Gaithersburg, Md.)) in a final volume of 200 μl DMEM/FI2 serum free medium. After a 10 minute incubation at room temperature, the DNA-lipid mixture was added to 500 μl serum free medium and was used to cover the cells within a tray. Four hours later, transfection medium was removed from each well and 2 ml DMEM/FI2 with 10% fetal bovine serum was added.
Forty-eight hours following transfection, fresh medium was added and MeP-dR (1 mg/ml in PBS) was added directly to the cells to achieve the desired final concentrations. Cell viability was measured 5 days following treatment as described for the MeP-dR toxicity study.
After 5 days the cells were removed from each well and the number of dye excluding cells were determined with the aid of a hemacytometer. 30-50% toxicity due to the DOTMA-DOPE transfection protocol is acceptable for cationic liposome mediated gene transfer to T-84 in vitro when performed under optimal conditions.
In an additional experiment, approximately 2×10^5 cells per well were transfected as above using 6 μg of plasmid containing E. coli PNP cDNA. Two days after transfection, varying concentrations of MeP-dR (0, 2, 4, 20, 40 and 160 μM) were added to the wells, and after 5 days the dye excluding cells were counted with the aid of a hemacytometer.
An experiment was also performed in triplicate in which 2×10^5 cells per well were transfected with LacZ or PNP using the protocol described for transfection. Two days after transfection, 16 μM MeP-dR was added to one set of the cultures transfected with PNP and one set of the cultures transfected with LacZ.

[2] = tested on: T-84 colon carcinoma cells; test: Killing of T-84 cells transfected with SV-PNP (DOTAP/DOPE); type: cell-based, human; conditions: 30 μg/ml, day 6
From the text: To eliminate possible toxicity associated with the non-hydrolyzable cationic lipid component of the LipofectinJ, an alternative liposome transfection vehicle was used in the killing experiments. A liposome vehicle consisting of a 1:1 (weight/weight) mixture of the cationic lipid DOTAP (1,2-dioleoyloxy-3-(trimethylammonium)-propane) and the neutral lipid DOPE (dioleoyl-phosphatidylethanolamine) (Avanti Polar Lipids) display transfection properties similar to LipofectinJ, but with less toxicity (data not shown). DOTAP/DOPE liposomes were prepared by mixing 0.5 mg of DOTAP and 0.5 mg of DOPE and evaporating the chloroform solvent. Following the addition of 500 μl of cyclohexane, the mixture was placed on dry ice and lyophilized. One ml of sterile water was added to the powdered lipids and the solution was vortexed every 5 minutes for 30 minutes. T-84 or Mel-1 cells were seeded at 30% confluency in 24-well plates and allowed to grow overnight. […]
In cells that received the PNP or control plasmids, the media was changed two days after transfection and MeP-dR (6-methylpurine-deoxyriboside) added to the appropriate wells to a final concentration of 30 μg/ml. […] Two days later (day 6), the cells were washed once with PBS, resuspended, and counted in a 20% solution of trypan blue reagent (Trypan Blue Stain 0.4%, Gibco-BRL, Gaithersburg, Md.) using a hemacytometer. […]

[3] = tested on: D54-PNP tumors; test: E. coli PNP-transduced D54 glioma tumors in nude mice; type: in vivo
Description: Female athymic nude mice (nu/nu) were implanted sc with 2×10^7 cells of either D54 parental tumor cells (D54-wt) or D54 tumor cells that had been transduced with the E. coli PNP (D54-PNP). After the tumors had grown to approximately 150 mg, they were treated ip with either vehicle or 67 mg/kg of MeP-dR (IP) once a day for 3 days (days 6, 7 and 8 after implantation). The tumor sizes were measured twice a week after treatment.
A confirmation experiment was set up exactly as described above, except that animals were treated with two doses of MeP-dR (45 and 67 mg/kg) (FIGS. 10 and 11). The results of this experiment were similar (Table V). There were 8 of 10 complete regressions in mice bearing the D54-PNP tumors that were treated with 67 mg/kg of MeP-dR. In 4 mice the tumors subsequently returned and grew. There were still 4 of 10 tumor-free survivors 60 days after the treatment had stopped. […] There were 2 of 10 complete regressions and 3 partial responses. […] The delay in the time required to double twice due to treatment with MeP-dR was 5 to 6 days in the non-transduced tumors and greater than 24 days in transduced tumors. In this experiment, the growth rate of the D54-PNP tumors was considerably slower than it was in the first experiment. There was no change in the growth rate of the D54-wt tumors. The reason for the slow growth rate of the D54-PNP tumors in this experiment is not known. […] (In other words, if a tumor was too small to measure, it was not included in the average size). This means that the overall tumor regressions in the D54 PNP group are actually much more pronounced than they appear in FIGS. 8-11.

For `Cc1ncnc2c1ncn2[C@H]1C[C@H](O)[C@@H](CO)O1` [MeP-dR, 9-(β-D-2-deoxyerythropentofuranosyl)-6-methylpurine], the “Inhibition of cell growth” value ([1]; 4 μM, 5 days, 6 μg PNP plasmid) was “greater than 80%”, the “Killing after PNP transfection” value ([1]; 16 μM) was “Substantial killing” and the “Killing of cells transfected with E. coli PNP” value ([1]; 160 μM, 5 days) was “killed virtually all of the cells”. The “Killing of T-84 cells transfected with SV-PNP” value [2] was “susceptible to killing”, the “Loss of weight in treated animals” value ([3]; 67 mg/kg, regardless of tumor implanted) was “little or no loss of weight” and the “Effect on E. coli PNP expressing D54 tumors, in words” value ([3]; 45 or 67 mg/kg) was “caused regression”. For the same molecule, the “Days Delay (T-C)” value ([3]; Table IV, 67 mg/kg) was over 39 days, the Doubling time ([3]; Table IV, 67 mg/kg) was over 56 and the “Nonspecific Deaths/Total” value ([3]; Table IV, 67 mg/kg) was 0/6. The “Regressions Partial” value ([3]; Table IV, 67 mg/kg) was 0/6, the “Regressions Complete” value ([3]; Table IV, 67 mg/kg IP once a day for three days, 67 mg/kg) was 6 of 6 and 6/6 and the “Tumor-free Survival” value ([3]; Table IV, 67 mg/kg, followed 65 days, 67 mg/kg) was “Four and 4/6”. For the same molecule, the “Days Delay (T-C)” value ([3]; Table V, 45 mg/kg) was over 24 days, the Doubling time ([3]; Table V, 45 mg/kg) was over 54 and the “Nonspecific Deaths/Total” value ([3]; Table V, 45 mg/kg) was 0/10. The “Regressions Partial” value ([3]; Table V, 45 mg/kg) was 3 and 3/10, the “Tumor-free Survival” value ([3]; Table V, 45 mg/kg) was “no tumor-free survivors and 0/10” and the “Regressions Complete” value ([3]; Table V, 45 mg/kg IP once a day for three days, 45 mg/kg) was 2 of 10 and 2/10. For the same molecule, the “Days Delay (T-C)” value ([3]; Table V, 67 mg/kg) was over 25 days, the Doubling time ([3]; Table V, 67 mg/kg) was over 55 and the “Nonspecific Deaths/Total” value ([3]; Table V, 67 mg/kg) was 1/10. The “Regressions Partial” value ([3]; Table V, 67 mg/kg) was 1/10, the “Regressions Complete” value ([3]; Table V, 67 mg/kg IP once a day for three days, 67 mg/kg) was 8 of 10 and 8/10 and the “Tumor-free Survival” value ([3]; Table V, 67 mg/kg, 60 days after treatment stopped, 67 mg/kg) was 4 of 10 and 4/10. For the same molecule, the “Activity against D54 glioma tumors expressing the E. coli PNP gene” value ([3]; previous studies) was “good activity” and the “Delay in the time required to double twice” value ([3]; transduced tumors, 45 and 67 mg/kg) was “greater than 24 days”.
